Structures can show the parent of a compound that is named as a salt. Where two headings read alike, the source gives them in different places.
Columns and labels:
[1] = test system: Corynebacterium pyogenes C-21; assay: In vitro antibacterial activity (MIC); format: cell-based; conditions: Rhodococcus (subgen. Prescottella) equi, C21; Corynebacterium pyogenes C-21; read-out: minimum inhibitory concentration (MIC)
Source text: (§1) In vitro antibacterial activity against 20 strains of bacteria
(§2) The numerals in the table show minimum inhibitory concentrations (MIC)

[2] = test system: Enterobacter cloacae P-2540; assay: In vitro antibacterial activity (MIC); format: cell-based
Source text: as §1, §2

[3] = test system: Escherichia coli NIHJ JC-2; assay: In vitro antibacterial activity (MIC); format: cell-based; conditions: Escherichia coli, NIHJJC2, read-out: minimum inhibitory concentration (MIC)
Source text: as §1, §2

Escherichia coli P-140a = assay: In vitro antibacterial activity (MIC); format: cell-based
Source text: as §1, §2

Escherichia coli P-5101 [4] = assay: In vitro antibacterial activity (MIC); format: cell-based
Source text: as §1, §2

[5] = test system: Klebsiella pneumoniae No. 13; assay: In vitro antibacterial activity (MIC); format: cell-based; conditions: Klebsiella pneumoniae No. 13; read-out: minimum inhibitory concentration (MIC)
Source text: as §1, §2

Proteus mirabilis P-2381 = assay: In vitro antibacterial activity (MIC); format: cell-based; conditions: P2381; Proteus mirabilis P-2381; read-out: minimum inhibitory concentration (MIC)
Source text: as §1, §2

Proteus morganii Kono = assay: In vitro antibacterial activity (MIC); format: cell-based; conditions: Morganella morganii; Proteus morganii Kono; read-out: minimum inhibitory concentration (MIC)
Source text: as §1, §2

Proteus rettgeri P-2503 = assay: In vitro antibacterial activity (MIC); format: cell-based; conditions: Providencia rettgeri
Source text: as §1, §2

[6] = test system: Pseudomonas aeruginosa No.12; assay: In vitro antibacterial activity (MIC); format: cell-based; conditions: Pseudomonas aeruginosa, NO.12, read-out: minimum inhibitory concentration (MIC)
Source text: as §1, §2

[7] = test system: Pseudomonas aeruginosa Tsuchijima; assay: In vitro antibacterial activity (MIC); format: cell-based; conditions: read-out: minimum inhibitory concentration (MIC)
Source text: as §1, §2

[8] = test system: Salmonella enteritidis No. 1891; assay: In vitro antibacterial activity (MIC); format: cell-based; conditions: Salmonella enterica; Salmonella enteritidis No. 1891; read-out: minimum inhibitory concentration (MIC)
Source text: as §1, §2

[9] = test system: Salmonella typhimurium S-9; assay: In vitro antibacterial activity (MIC); format: cell-based; conditions: Salmonella enterica; Salmonella typhimurium S-9; read-out: minimum inhibitory concentration (MIC)
Source text: as §1, §2

[10] = test system: Serratia mercescens IFO 3736; assay: In vitro antibacterial activity (MIC); format: cell-based
Source text: as §1, §2

Shigella flexneri 2a = assay: In vitro antibacterial activity (MIC); format: cell-based; conditions: read-out: minimum inhibitory concentration (MIC)
Source text: as §1, §2

[11] = test system: Shigella flexneri 4a P-330; assay: In vitro antibacterial activity (MIC); format: cell-based; conditions: 4AP330, read-out: minimum inhibitory concentration (MIC)
Source text: as §1, §2

[12] = test system: Staphylococcus aureus 209P JC-1; assay: In vitro antibacterial activity (MIC); format: cell-based; conditions: Staphylococcus aureus 209P JC-1; read-out: minimum inhibitory concentration (MIC)
Source text: as §1, §2

[13] = test system: Staphylococcus aureus No. 50774; assay: In vitro antibacterial activity (MIC); format: cell-based; conditions: Staphylococcus aureus No. 50774; read-out: minimum inhibitory concentration (MIC)
Source text: as §1, §2

[14] = test system: Streptococcus faecalis P-2473; assay: In vitro antibacterial activity (MIC); format: cell-based; conditions: Enterococcus faecalis
Source text: as §1, §2

[15] = test system: Streptococcus pyogenes 65A; assay: In vitro antibacterial activity (MIC); format: cell-based; conditions: Streptococcus pyogenes 65A; read-out: minimum inhibitory concentration (MIC)
Source text: as §1, §2

[16] = test system: Staphylococcus aureus No. 50774; assay: In vivo efficacy against systemic infection; design: species or system male mice (ddY); conditions: NO.50774, in Mus musculus, 336 h, sc, twice, about 5 minutes and 6 hours after infection, read-out: ED50 (median effective dose)
Protocol: (§3) The contents in the vials (No. A and No. C) prepared in Example 17 were each dissolved in deionized water, and injections having various concentrations were prepared.
(§4) Compounds A, B, F, G, H and M were dissolved in deionized water. Compounds C, D, E and J were dissolved in an aqueous solution of sodium carbonate (pH 8-9) to prepare injections of various concentrations.
(§5) Each of the injections was administered to mice under the conditions described below, and the median effective doses (ED50) obtained are shown in Table II.
(§6) Mice: male mice (ddY) weighting about 20g
Staphylococcus aureus No. 50774;
Intravenous infection with 50 to 100
LD50 (about 5 × 10^8cells/mouse) of a
bacterial suspension in saline.
(§7) twice, about 5 minutes and 6 hours after
Staphylococcus aureus No. 50774 14 days
The numerals in the table show ED50 (mg/kg). ED50 values were
(§8) calculated in accordance with the Behrens-Kaerber method [Arch. Exp. Path

Escherichia coli P-5101 [17] = assay: In vivo efficacy against systemic infection; design: species or system male mice (ddY); conditions: P5101, in Mus musculus, 168 h, twice, about 5 minutes and 6 hours after infection, read-out: ED50 (median effective dose)
Protocol: as §3
(§9) Compounds A, B, F, G, H and M were dissolved in deionized water.
as §6
(§10) Intraperitoneal infection with 50 to
(§11) of a bacterial suspension in tryptosoy
as §7, §8

[18] = test system: Pseudomonas aeruginosa No. 12; assay: In vivo efficacy against systemic infection; design: species or system male mice (ddY); conditions: for ED50: NO.12, in Mus musculus
Protocol: as §3, §9, §6
Pseudomonas aeruginosa No. 12;
as §10, §11, §7
Pseudomonas aeruginosa No. 12
as §8

[19] = test system: bacteria (systemic infection); assay: In vivo efficacy against systemic infection, overall conclusions; design: species or system male mice (ddY); conditions: Table II
Protocol: as §3, §4, §5

in vivo = conditions: mouse
[20] = iv, twice, about 5 minutes and 6 hours after infection, read-out: ED50 (median effective dose)
[21] = sc, twice, about 5 minutes and 6 hours after infection, read-out: ED50 (median effective dose)

SMILES: CC(=O)N1CCN(c2ncc3c(=O)c(C(=O)N[C@@H](C(=O)N[C@@H]4C(=O)N5[C@@H]4SC(C)(C)[C@@H]5C(=O)O)c4ccc(O)cc4)c[nH]c3n2)CC1 [Compound 2, D-α-[5,8-Dihydro-2-(4-acetyl-1-piperazinyl)-5-oxopyrido[2,3-d]pyrimidine-6-carboxamido]-p-hydroxybenzylpenicillin sodium salt]
- MIC [1]: 0.78 µg/mL
- MIC ([2]; P2540, Enterobacter cloacae P-2540, read-out: minimum inhibitory concentration (MIC)): 6.25 µg/mL
- MIC [3]: 3.13 µg/mL
- minimum inhibitory concentration (MIC) (Escherichia coli P-140a): 12.5 µg/mL
- MIC (Escherichia coli P-5101 [4]; P5101, Escherichia coli P-5101, read-out: minimum inhibitory concentration (MIC)): 0.78 µg/mL
- MIC [5]: 12.5 µg/mL
- MIC (Proteus mirabilis P-2381): 6.25 µg/mL
- MIC (Proteus morganii Kono): 6.25 µg/mL
- MIC (Proteus rettgeri P-2503; P2503, Proteus rettgeri P-2503, read-out: minimum inhibitory concentration (MIC)): 25 µg/mL
- MIC [6]: 3.13 µg/mL
- MIC ([7]; Pseudomonas aeruginosa Tsuchijima): 0.78 µg/mL
- MIC [8]: 0.78 µg/mL
- MIC [9]: 0.78 µg/mL
- MIC ([10]; IFO3736, Serratia mercescens IFO 3736, read-out: minimum inhibitory concentration (MIC)): 6.25 µg/mL
- MIC (Shigella flexneri 2a): 3.13 µg/mL
- MIC [11]: 3.13 µg/mL
- MIC [12]: 1.56 µg/mL
- MIC [13]: 1.56 µg/mL
- MIC ([14]; P2473, Streptococcus faecalis P-2473, read-out: minimum inhibitory concentration (MIC)): 6.25 µg/mL
- MIC [15]: 0.006 µg/mL
- ED50 [16]: 3.3 mg/kg
- ED50 (Escherichia coli P-5101 [17]; iv): 3.9 mg/kg
- ED50 (Escherichia coli P-5101 [17]; sc): 4.6 mg/kg
- ED50 [18, 20]: 6 mg/kg
- ED50 ([18]; parenteral administration, compounds 1 and 2 together, read-out: ED50): 2 to 6 mg/kg
- ED50 [18, 21]: 5 mg/kg
- antibacterial activity compared with compounds J and H (in words) ([18]; parenteral administration): far superior antibacterial activity
- antibacterial activity relative to compounds B and C (times as high) ([18]; parenteral administration): 3 to 25 times
- antibacterial activity relative to compounds D and E (times as high) ([18]; parenteral administration): 6 to 20 times
- antibacterial activity in vivo (in words) [19]: excellent antibacterial activity in vivo
- chemotherapeutic index relative to compounds B, D, E, F, G and J (times as high) (mice; Pseudomonas aeruginosa): 3 to 100 times
- LD50 relative to compounds A to G (times as high) (mice; mice): 2 to 10 times
- LD50 at 168 h (in vivo; iv): 4520 mg/kg
- selectivity ratio (in vivo; iv): 753
- LD50 at 168 h (in vivo; sc): > 6000 mg/kg
- selectivity ratio (in vivo; sc): > 1200

SMILES: CCN1CCN(C(=O)N[C@@H](C(=O)N[C@@H]2C(=O)N3[C@@H]2SC(C)(C)[C@@H]3C(=O)O)c2ccccc2)C(=O)C1=O [Compound H, D-α-(4-Ethyl-2,3-dioxopiperazine-1-carboxamido)-benzylpenicillin sodium salt]
- MIC [1]: 6.25 µg/mL
- MIC ([2]; Enterobacter cloacae, P2540, read-out: minimum inhibitory concentration (MIC)): 3.13 µg/mL
- MIC [3]: 3.13 µg/mL
- minimum inhibitory concentration (MIC) (Escherichia coli P-140a): 12.5 µg/mL
- MIC (Escherichia coli P-5101 [4]; Escherichia coli, P5101, read-out: minimum inhibitory concentration (MIC)): 1.56 µg/mL
- MIC [5]: 6.25 µg/mL
- MIC (Proteus mirabilis P-2381): 0.78 µg/mL
- MIC (Proteus morganii Kono): 0.78 µg/mL
- MIC (Proteus rettgeri P-2503; P2503, read-out: minimum inhibitory concentration (MIC)): 1.56 µg/mL
- MIC [6]: 3.13 µg/mL
- MIC ([7]; Pseudomonas aeruginosa): 1.56 µg/mL
- MIC [8]: 0.39 µg/mL
- MIC [9]: 0.39 µg/mL
- MIC ([10]; Serratia, IFO3736, read-out: minimum inhibitory concentration (MIC)): 0.78 µg/mL
- MIC (Shigella flexneri 2a): 1.56 µg/mL
- MIC [11]: 3.13 µg/mL
- MIC [12]: 0.39 µg/mL
- MIC [13]: 0.78 µg/mL
- MIC ([14]; P2473, read-out: minimum inhibitory concentration (MIC)): 3.13 µg/mL
- MIC [15]: 0.025 µg/mL
- ED50 [16]: 8.8 mg/kg
- ED50 (Escherichia coli P-5101 [17]; iv): 43.3 mg/kg
- ED50 (Escherichia coli P-5101 [17]; sc): 26.3 mg/kg
- ED50 [18, 20]: > 100 mg/kg
- ED50 [18, 21]: 141 mg/kg
- antibacterial activity in vivo as fraction of that of the penicillin compounds of this invention [19]: one-twentieth to one-seventieth
- LD50 compared with compounds 1 and 2 (in words) (mice; mice): almost the same
- LD50 at 168 h (in vivo; iv): > 4000 mg/kg
- LD50 at 168 h (in vivo; sc): > 6000 mg/kg
- selectivity ratio (in vivo; sc): > 42

— US4103011A, “Novel penicillin compounds and process for preparation thereof” (priority 1976, dated 1978)
